# Results published in patent US20030065030A1, “Autonomic controlling agents and health drinks and foods” (priority 2001, published 2003).
# Tests used:
# [1] = tested on: sympathetic nerve hepatic branches; assay: efferent neural activity of the sympathetic nerve hepatic branches after intravenous carnosine; type: in vivo, rat; conditions: 100 ng intravenous
# Method: (§1) According to the method of Niijima (Neurobiology 3:299-307, 1995), the effect of carnosine on the autonomic nerve activity was investigated. Wistar male rats, weighing about 300 g, that had been kept in an environment of room temperature (24° C.) and free access to the feed were fasted (with free access to water) 12 hours before the start of the experiment. Rats were subjected to abdominal section under urethane anesthesia (1 g/kg body weight, intraperitoneal administration), neurofilaments were isolated from central cut ends of a sympathetic nerve branch or a vagal nerve branch, and the efferent neural activity was recorded via an AC amplifier. The neural activity was observed using an oscilloscope and was recorded into magnetic tape. At the same time, the time course of the neural activity was recorded with a pen-type recorder via a rate meter with a reset time set at 5 seconds.
# (§2) Carnosine (100 ng or 1,000 ng dissolved in 0.1 ml physiological saline) was intravenously administered. As the control, physiological saline (0.1 ml) was alone administered intravenously.
# (§3) The effect of carnosine administration was calculated as the neural activity count (%) after carnosine administration relative to neural activity count (mean value of 10 activity counts during 5 minutes) before administration set at 100. Five rats were used for each experiment. Data were tested with ANOVA (p<0.05) and were expressed as mean +/− standard error.
# [2] = tested on: vagal nerve celiac branches; assay: efferent neural activity of the vagal nerve celiac branches after intravenous carnosine; type: in vivo, rat; conditions: 100 ng intravenous
# Method: as §1, §2, §3
# In order to study the effect on the neural activity of the vagal nerve, the efferent neural activity of the vagal nerve celiac branches was recorded.
# [3] = tested on: DOCA-salt hypertensive rats; assay: anti-hypertensive effect in DOCA-salt hypertensive rats (systolic blood pressure); type: in vivo, rat
# Method: Sprague-Dawley male rats (6-week old) were used. The animals were anesthetized by the intraperitoneal administration of pentobarbital at 40 mg/kg body weight, and the right flank was dissected to remove the right kidney. After the surgical operation and a one week recovery period, the animals were divided into the pseudosurgery (sham) group and the deoxycorticosterone acetate (DOCA) salt group. Each group was further divided into the normal diet group, the 0.001% carnosine-containing diet group, and the 0.0001% carnosine-containing group.
# The rats of the DOCA-salt group received the subcutaneous injection of DOCA suspended in corn oil at 15 mg/kg body weight twice per week, and tap water supplemented with 1% sodium chloride was given as the drinking water. The sham group received neither DOCA nor sodium chloride. The systolic blood pressure was monitored once per week for five weeks using the tail cuff and the pneumatic pulse transducer (BP-98A, Softron). The experiment employed 9 rats in the DOCA group and 6 rats in the sham group. Data were tested with ANOVA (p<0.05) and were expressed as mean +/− standard error.
# [4] = tested on: autonomic nervous system in humans; assay: autonomic nerve activity in humans by ECG R-R interval power spectral analysis; type: in vivo, human; conditions: for mean promotion ratio of the overall autonomic nerve activity / mean promotion ratio of the parasympathetic nerve activity: responding subjects
# Method: The resting ECG of the subjects was measured for 5 minutes, and ECG was measured for 5 minutes at 30 minutes and 60 minutes after drinking the test sample, respectively. In order to avoid influences by changes in respiration, ECG was measured when the subjects were forced to respire at 15 respirations per minute. The intervals between R-waves (R-R intervals) of the ECG were determined, and were subjected to a power spectral analysis according to the program prepared by Moritani et al. (J. Sport Med. Sci. 7:31-39, 1993). For cycle components, in conformity to the classification criteria of the Cardiology society in Europe and the USA (Circulation 93:1043-1065, 1996), heart rate variation was divided into the low frequency (0.03-0.15 Hz) and the high frequency (0.15-0.4 Hz).
# Carnosine was weighed out on a chartula at 0.04 mg, 0.2 mg, 1 mg, 5 mg, and 25 mg/capita. For 0.2 mg, one mg of a 1:4 mixture of carnosine and starch powder (⅕ dilution) was weighed out. For 0.04 mg, one mg of a 1:4 mixture of carnosine and starch powder that further mixed with the starch powder at 1:4 ( 1/25 dilution) was weighed out. Carnosine was taken by licking the one weighed out on chartula.
# There were 8 subjects, 21-51 years old (33.0 +/− 11.95 years old) and weighing 54-73.5 kg (64.3 +/− 7.01 kg), and among them, the experiments of the 0.04 mg and the 0.2 mg were performed on six subjects, the experiments of the 1 mg and the 5 mg were performed on 8 subjects, and the experiment of the 25 mg was performed on 5 subjects.
# [5] = target: T1, carnosine-degrading enzyme (Homo sapiens, UniProt Q96KN2); conditions: cited from earlier work
# T1 construct: host or cells: human blood
# T1 sequence (Q96KN2 27-507 limits assumed): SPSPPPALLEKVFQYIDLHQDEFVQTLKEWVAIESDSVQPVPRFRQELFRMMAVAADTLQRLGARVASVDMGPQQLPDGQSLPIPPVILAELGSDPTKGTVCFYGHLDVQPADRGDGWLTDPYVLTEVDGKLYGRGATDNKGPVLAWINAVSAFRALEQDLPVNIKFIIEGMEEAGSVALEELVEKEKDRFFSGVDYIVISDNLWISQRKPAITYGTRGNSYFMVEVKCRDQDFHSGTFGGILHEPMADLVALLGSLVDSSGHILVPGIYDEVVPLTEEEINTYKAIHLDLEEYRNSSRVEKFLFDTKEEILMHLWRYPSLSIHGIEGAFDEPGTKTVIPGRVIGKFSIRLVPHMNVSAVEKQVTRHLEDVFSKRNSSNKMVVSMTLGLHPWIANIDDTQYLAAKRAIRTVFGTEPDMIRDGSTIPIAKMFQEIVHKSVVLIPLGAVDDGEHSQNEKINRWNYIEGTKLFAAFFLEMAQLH
# [6] = 30 minutes after administration
# [7] = 60 minutes after administration
# [8] = 90 minutes after administration
# [9] = 0.04 mg oral ingestion, the one responding subject
smiles,measurement,setting,value
"NCCC(=O)N[C@@H](Cc1cnc[nH]1)C(=O)O [carnosine, β-alanyl-L-histidine]",suppression rate of efferent neural activity of the sympathetic nerve hepatic branches,[1]; [6],20.1%
same,suppression rate of efferent neural activity of the sympathetic nerve hepatic branches,[1]; [7],25.9%
same,suppression rate of efferent neural activity of the sympathetic nerve hepatic branches,[1]; [8],32.0%
same,promotion rate of efferent neural activity of the vagal nerve celiac branches,[2]; [6],15.4%
same,promotion rate of efferent neural activity of the vagal nerve celiac branches,[2]; [7],28.6%
same,promotion rate of efferent neural activity of the vagal nerve celiac branches,[2]; [8],48.7%
same,suppression rate of increase in systolic blood pressure,"[3]; 0.0001% carnosine-containing diet, week five",17.8%
same,suppression rate of increase in systolic blood pressure,"[3]; 0.0001% carnosine-containing diet, week four",22.1%
same,suppression rate of increase in systolic blood pressure,"[3]; 0.0001% carnosine-containing diet, week one",9.6%
same,suppression rate of increase in systolic blood pressure,"[3]; 0.0001% carnosine-containing diet, week three",15.0%
same,suppression rate of increase in systolic blood pressure,"[3]; 0.0001% carnosine-containing diet, week two",10.2%
same,suppression rate of increase in systolic blood pressure,"[3]; 0.001% carnosine-containing diet, week five",25.5%
same,suppression rate of increase in systolic blood pressure,"[3]; 0.001% carnosine-containing diet, week four",21.5%
same,suppression rate of increase in systolic blood pressure,"[3]; 0.001% carnosine-containing diet, week one",6.2%
same,suppression rate of increase in systolic blood pressure,"[3]; 0.001% carnosine-containing diet, week three",19.6%
same,suppression rate of increase in systolic blood pressure,"[3]; 0.001% carnosine-containing diet, week two",12.4%
same,ratio of those who exhibited promotion (more than 200% of the previous value of the parasympathetic nerve activity),[4]; 0.04 mg oral ingestion,16.7%
same,promotion ratio of the overall autonomic nerve activity,[4]; [9],195%
same,promotion ratio of the parasympathetic nerve activity,[4]; [9],249%
same,ratio of those who exhibited promotion (more than 200% of the previous value of the parasympathetic nerve activity),[4]; 0.2 mg oral ingestion,66.7%
same,mean promotion ratio of the overall autonomic nerve activity,[4]; 0.2 mg oral ingestion,329%
same,mean promotion ratio of the parasympathetic nerve activity,[4]; 0.2 mg oral ingestion,436%
same,ratio of those who exhibited promotion (more than 200% of the previous value of the parasympathetic nerve activity),[4]; 1 mg oral ingestion,37.5%
same,mean promotion ratio of the overall autonomic nerve activity,[4]; 1 mg oral ingestion,190%
same,mean promotion ratio of the parasympathetic nerve activity,[4]; 1 mg oral ingestion,259%
same,ratio of those who exhibited promotion (more than 200% of the previous value of the parasympathetic nerve activity),[4]; 5 mg oral ingestion,25.0%
same,mean promotion ratio of the overall autonomic nerve activity,[4]; 5 mg oral ingestion,410%
same,mean promotion ratio of the parasympathetic nerve activity,[4]; 5 mg oral ingestion,472%
same,ratio of those who exhibited promotion (more than 200% of the previous value of the parasympathetic nerve activity),[4]; 25 mg oral ingestion,0%
same,activity of a carnosine-degrading enzyme in the blood,[5],2 to 7 µmol/h/mL
